For seven compounds, IC50 results are on record in ChEMBL document CHEMBL4152294, “Design, synthesis, structure-activity relationships study and X-ray crystallography of 3-substituted-indolin-2-one-5-carboxamide derivatives as PAK4 inhibitors” (Eur J Med Chem, 2018).

One experiment concerns A549. Nature of the experiment: Antiproliferative activity against human A549 cells after 72 hrs by CCK8 assay. It is filed as functional, cell-based. The following applies: A549, 72 h.
In another experiment the test system is HCT-116. Nature of the experiment: Antiproliferative activity against human HCT116 cells after 72 hrs by CCK8 assay. It is filed as functional, cell-based. The following applies: HCT-116, 72 h. In general terms: Formazan colour is commonly taken as a measure of viable cells.

In general, IC50 refers to the concentration that inhibits the measured activity by half. The low end stands for higher potency, the high end for lower potency.

Consider `Cc1nc(/C(=C2\C(=O)Nc3ccc(C(=O)N[C@H](CO)c4ccccc4)cc32)c2ccccc2)[nH]c1C`, for which the IC50 in the experiment on A549 is 17700 nM; in the experiment with HCT-116 it was 2580 nM.

Regarding `O=C1Nc2ccc(C(=O)N[C@H](CO)c3ccccc3)cc2/C1=C(/c1ncc[nH]1)c1ccccc1Cl`, the half-maximal inhibitory concentration (IC50) is 1280 nM with A549 and 635 nM in the experiment on HCT-116.

With `Cc1ncc(/C=C2\C(=O)Nc3ccc(C(=O)N[C@H](CO)c4ccccc4)cc32)[nH]1`, the IC50 in the experiment with A549 worked out at 56100 nM; with HCT-116, 4090 nM.

For `CCc1ncc(/C=C2\C(=O)Nc3ccc(C(=O)N[C@H](CO)c4ccccc4)cc32)[nH]1`, the IC50 turned out to be 29800 nM in the experiment on A549 and 2860 nM with HCT-116.

For the compound `O=C1Nc2ccc(C(=O)N[C@H](CO)c3ccccc3)cc2/C1=C(/c1ncc[nH]1)c1ccccc1F`, the IC50 in the experiment on A549 worked out at 666 nM; with HCT-116 it was 88 nM.

Take `Cc1c[nH]c(/C(=C2\C(=O)Nc3ccc(C(=O)N[C@H](CO)c4ccccc4)cc32)c2ccccc2)n1`: the IC50 was determined as 511 nM with A549 and 77 nM in the experiment with HCT-116.

`Cc1nc(Nc2n[nH]c3c2CN(C(=O)N[C@H](CN(C)C)c2ccccc2)C3(C)C)c2sccc2n1` [PF-03758309]: the IC50 with A549 was 463 nM; with HCT-116, 39 nM.
